From patent US11180462B2, “Microbiocidal oxadiazole derivatives” (SYNGENTA PARTICIPATIONS AG, priority 2015, dated 2021)

Experiments:
[1] = test system: Phakopsora Pachyrhizi; test: Fungicidal activity against Phakopsora pachyrhizi / soybean / leaf disc preventative (Asian soybean rust); format: in vivo; conditions: foliar, 200 ppm in the applied formulation, soybean leaf disks, compared to untreated control leaf disks, read-out: disease control
In short: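 Preventative soybean leaf-disc test: discs on water agar sprayed with diluted formulated compound, inoculated one day later with spores on the lower surface. Held 24–36 h dark at 20°C, 75% rh, then 12 h light/day; percent disease control versus untreated discs scored 12–14 days after application.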

[2] = test system: Glomerella lagenarium (Colletotrichum lagenarium); test: Fungicidal activity against Glomerella lagenarium (Colletotrichum lagenarium) liquid culture / cucumber / preventative (anthracnose); format: cell-based; conditions: Colletotrichum orbiculare; 20 ppm in the applied formulation; liquid culture (PDB), growth inhibition measured photometrically after 3 to 4 days; compared to untreated control; read-out: disease control
In short: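 Photometric read-out of fungal growth after 2–7 days, expressed as percent antifungal activity versus untreated check. Cryo-stored conidia in PDB; compound at 20 ppm; dark, 24 °C, 96% RH.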

[3] = test system: Puccinia recondita f. Sp. Tritici; test: Fungicidal activity against Puccinia recondita f. sp. tritici / wheat / leaf disc preventative (brown rust); format: in vivo; conditions: foliar, 200 ppm in the applied formulation, wheat leaf segments, preventative, compared to untreated control leaf disks, read-out: disease control
In short: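 Preventative leaf-segment test, wheat cv. Kanzler on water agar. Spray compound at 200 ppm, inoculate with spores 1 day later; 19° C., 75% rh, 12/12 h light. Read-out: % disease control vs untreated, 7 to 9 days after application.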

[4] = test system: Puccinia recondita f. Sp. Tritici; test: Fungicidal activity against Puccinia recondita f. sp. tritici / wheat / leaf disc curative (brown rust); format: in vivo; conditions: foliar, 24 h, 200 ppm in the applied formulation, wheat leaf segments, curative (applied 1 day after inoculation), compared to untreated control leaf disks, read-out: disease control
In short: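 % disease control vs untreated, scored 6–8 d post-application. Wheat cv. Kanzler segments, spore-inoculated, dark 19° C/75% RH; formulated cpd applied 1 d post-inoc; then 19° C, 75% RH, 12 h L/12 h D.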

| melting point [°C] | Compound | pest or weed control at 200 ppm [1] [%] | inhibition of growth at 20 ppm [2] [%] | pest or weed control at 200 ppm [3] [%] | pest or weed control at 200 ppm [4] [%] |
| --- | --- | --- | --- | --- | --- |
| 185.5 to 188.5 | CON(Cc1ccc(-c2noc(C(F)(F)F)n2)cc1)C(=O)C1CCCN1.Cl (stereo not shown) |  |  |  |  |
| 121.7 to 123.9 | CCC(=O)NC(C)C(=O)N(Cc1ccc(-c2noc(C(F)(F)F)n2)cc1)OC (stereo not shown) [Compound 1.797, N-methoxy-2-(propanoylamino)-N-[[4-[5-(trifluoromethyl)-1,2,4-oxadiazol-3-yl]phenyl]methyl]-propanamide] |  |  |  |  |
| 129.7 to 134 | CON(Cc1ccc(-c2noc(C(F)(F)F)n2)cc1)C(=O)C(C)NC(=O)C1CC1 (stereo not shown) [Compound 1.798, N-[2-(methoxy-[[4-[5-(trifluoromethyl)-1,2,4-oxadiazol-3-yl]phenyl]methyl]-amino]-1-methyl-2-oxo-ethyl]-cyclopropane-carboxamide] |  |  |  |  |
| 98.5 to 100.6 | CCC(=O)NC(C(=O)N(Cc1ccc(-c2noc(C(F)(F)F)n2)cc1)OC)C(C)C (stereo not shown) [Compound 1.802, N-methoxy-3-methyl-2-(propanoylamino)-N-[[4-[5-(trifluoromethyl)-1,2,4-oxadiazol-3-yl]phenyl]methyl]-butanamide] |  |  |  |  |
| 148.2 to 150.6 | CCC(=O)N1CCCC1C(=O)N(Cc1ccc(-c2noc(C(F)(F)F)n2)cc1)OC (stereo not shown) [Compound 1.803, N-methoxy-1-propanoyl-N-[[4-[5-(trifluoromethyl)-1,2,4-oxadiazol-3-yl]phenyl]methyl]-pyrrolidine-2-carboxamide] |  |  |  |  |
| 93.9 to 96.8 | CON(Cc1ccc(-c2noc(C(F)(F)F)n2)cc1)C(=O)C1CCCN1C(C)=O (stereo not shown) [Compound 1.805, 1-acetyl-N-methoxy-N-[[4-[5-(trifluoromethyl)-1,2,4-oxadiazol-3-yl]phenyl]methyl]-pyrrolidine-2-carboxamide] |  |  |  |  |
| 81.2 to 84.9 | CON(Cc1ccc(-c2noc(C(F)(F)F)n2)cc1)C(=O)CBr [Compound 1.806, 2-bromo-N-methoxy-N-[[4-[5-(trifluoromethyl)-1,2,4-oxadiazol-3-yl]phenyl]methyl]-acetamide] |  |  |  |  |
| 79.1 to 80.4 | CCOC(=O)c1cnn(CC(=O)N(Cc2ccc(-c3noc(C(F)(F)F)n3)cc2)OC)c1 [Compound 1.807, ethyl 1-[2-[methoxy-[[4-[5-(trifluoromethyl)-1,2,4-oxadiazol-3-yl]phenyl]methyl]-amino]-2-oxo-ethyl]pyrazole-4-carboxylate] |  |  |  |  |
| 125.1 to 127.2 | CON(Cc1ccc(-c2noc(C(F)(F)F)n2)cc1)C(=O)Cn1cncn1 [Compound 1.808, N-methoxy-2-(1,2,4-triazol-1-yl)-N-[[4-[5-(trifluoromethyl)-1,2,4-oxadiazol-3-yl]phenyl]methyl]-acetamide] |  |  |  |  |
|  | CON(C)C(=O)N(Cc1ccc(-c2noc(C(F)(F)F)n2)cc1)CC(F)(F)F [Compound 3.25, 1-methoxy-1-methyl-3-(2,2,2-trifluoroethyl)-3-[[4-[5-(trifluoromethyl)-1,2,4-oxadiazol-3-yl]phenyl]methyl]urea] | ≥ 80 | ≥ 80 | ≥ 80 | ≥ 80 |
|  | CN(C)C(=O)N(Cc1ccc(-c2noc(C(F)(F)F)n2)cc1)CC(F)(F)F [Compound 3.26, 1,1-dimethyl-3-(2,2,2-trifluoroethyl)-3-[[4-[5-(trifluoromethyl)-1,2,4-oxadiazol-3-yl]phenyl]methyl]urea] | ≥ 80 | ≥ 80 | ≥ 80 | ≥ 80 |
|  | CCON(Cc1ccc(-c2noc(C(F)(F)F)n2)cc1)C(=O)N(C)C [Compound 3.28, 1-ethoxy-3,3-dimethyl-1-[[4-[5-(trifluoromethyl)-1,2,4-oxadiazol-3-yl]phenyl]methyl]urea] | ≥ 80 | ≥ 80 | ≥ 80 | ≥ 80 |
|  | CCCN(Cc1ccc(-c2noc(C(F)(F)F)n2)cc1)C(=O)N(C)OC [Compound 3.30, 1-methoxy-1-methyl-3-propyl-3-[[4-[5-(trifluoromethyl)-1,2,4-oxadiazol-3-yl]phenyl]methyl]urea] | ≥ 80 | ≥ 80 | ≥ 80 | ≥ 80 |
|  | CON(C)C(=O)N(Cc1ccc(-c2noc(C(F)(F)F)n2)cc1)C1CC1 [Compound 3.33, 1-cyclopropyl-3-methoxy-3-methyl-1-[[4-[5-(trifluoromethyl)-1,2,4-oxadiazol-3-yl]phenyl]methyl]urea] | ≥ 80 | ≥ 80 | ≥ 80 | ≥ 80 |
|  | CCNC(=O)N(Cc1ccc(-c2noc(C(F)(F)F)n2)cc1)C1CC1 [Compound 3.34, 1-cyclopropyl-3-ethyl-1-[[4-[5-(trifluoromethyl)-1,2,4-oxadiazol-3-yl]phenyl]methyl]urea] | ≥ 80 | ≥ 80 | ≥ 80 | ≥ 80 |
|  | O=C(NC1CC1)N(Cc1ccc(-c2noc(C(F)(F)F)n2)cc1)C1CC1 [Compound 3.36, 1,3-dicyclopropyl-1-[[4-[5-(trifluoromethyl)-1,2,4-oxadiazol-3-yl]phenyl]methyl]urea] | ≥ 80 | ≥ 80 | ≥ 80 | ≥ 80 |
|  | CON(Cc1ccc(-c2noc(C(F)(F)F)n2)cc1)C(=O)NCC1(C#N)CC1 [Compound 3.40, 3-[(1-cyanocyclopropyl)-methyl]-1-methoxy-1-[[4-[5-(trifluoromethyl)-1,2,4-oxadiazol-3-yl]phenyl]methyl]urea] | ≥ 80 | ≥ 80 | ≥ 80 | ≥ 80 |
|  | CNC(=O)N(Cc1ccc(-c2noc(C(F)(F)F)n2)c(F)c1)OC [Compound 3.44, 1-[[3-fluoro-4-[5-(trifluoromethyl)-1,2,4-oxadiazol-3-yl]phenyl]methyl]-1-methoxy-3-methyl-urea] | ≥ 80 | ≥ 80 | ≥ 80 | ≥ 80 |
|  | CCN(Cc1ccc(-c2noc(C(F)(F)F)n2)cc1)C(=O)NC [Compound 3.52, 1-ethyl-3-methyl-1-[[4-[5-(trifluoromethyl)-1,2,4-oxadiazol-3-yl]phenyl]methyl]urea] | ≥ 80 | ≥ 80 | ≥ 80 | ≥ 80 |
|  | CCN(Cc1ccc(-c2noc(C(F)(F)F)n2)cc1)C(=O)NC1CC1 [Compound 3.53, 3-cyclopropyl-1-ethyl-1-[[4-[5-(trifluoromethyl)-1,2,4-oxadiazol-3-yl]phenyl]methyl]urea] | ≥ 80 | ≥ 80 | ≥ 80 | ≥ 80 |
|  | CON(Cc1ccc(-c2noc(C(F)(F)F)n2)cc1)C(=O)N(C)CC#N [Compound 3.57, 1-(cyanomethyl)-3-methoxy-1-methyl-3-[[4-[5-(trifluoromethyl)-1,2,4-oxadiazol-3-yl]phenyl]methyl]urea] | ≥ 80 | ≥ 80 | ≥ 80 | ≥ 80 |
|  | CON(Cc1ccc(-c2noc(C(F)(F)F)n2)cc1)C(=O)N(C)C1CC1 [Compound 3.58, 1-cyclopropyl-3-methoxy-1-methyl-3-[[4-[5-(trifluoromethyl)-1,2,4-oxadiazol-3-yl]phenyl]methyl]urea] | ≥ 80 | ≥ 80 | ≥ 80 | ≥ 80 |
|  | CON(Cc1ccc(-c2noc(C(F)(F)F)n2)cc1)C(=O)N(C)C1COC1 [Compound 3.59, 1-methoxy-3-methyl-3-(oxetan-3-yl)-1-[[4-[5-(trifluoromethyl)-1,2,4-oxadiazol-3-yl]phenyl]methyl]urea] | ≥ 80 | ≥ 80 | ≥ 80 | ≥ 80 |
|  | CON(Cc1ccc(-c2noc(C(F)(F)F)n2)cc1)C(=O)N1CCCC1 [Compound 3.60, N-methoxy-N-[[4-[5-(trifluoromethyl)-1,2,4-oxadiazol-3-yl]phenyl]methyl]-pyrrolidine-1-carboxamide] | ≥ 80 | ≥ 80 | ≥ 80 | ≥ 80 |
|  | C#CCN(C)C(=O)N(Cc1ccc(-c2noc(C(F)(F)F)n2)cc1)OC [Compound 3.61, 1-methoxy-3-methyl-3-prop-2-ynyl-1-[[4-[5-(trifluoromethyl)-1,2,4-oxadiazol-3-yl]phenyl]methyl]urea] | ≥ 80 | ≥ 80 | ≥ 80 | ≥ 80 |
